According to US8658604B2, “Template-fixed beta-hairpin peptidomimetics with protease inhibitory activity” (Polyphor Ltd, priority 2005, dated 2014):
Where a SMILES comes first, the peptide text is derived from it.

Legend:
[1] = biological target: Urokinase from human urine (Homo sapiens, UniProt P00749); assay: Enzymatic assay, urokinase
[2] = biological target: Coagulation Factor Xa, from uman plasma (Homo sapiens, UniProt P00742); assay: Enzymatic assay, coagulation factor Xa
[3] = biological target: Thrombin, from Human Plasma (Homo sapiens, UniProt P00734); assay: Enzymatic assay, thrombin
[4] = biological target: Chymotrypsin, from human pancreas (Homo sapiens, UniProt P17538); assay: Enzymatic assay, chymotrypsin
[5] = system: Tryptase, from human lung; assay: Enzymatic assay, tryptase; settings: at 100 μM
[6] = biological target: T1, CathepsinG, from human neutrophils (Homo sapiens, UniProt P08311); assay: Enzymatic assay, cathepsin G; settings: Cathepsin G IC50
T1 sequence (P08311 21-244): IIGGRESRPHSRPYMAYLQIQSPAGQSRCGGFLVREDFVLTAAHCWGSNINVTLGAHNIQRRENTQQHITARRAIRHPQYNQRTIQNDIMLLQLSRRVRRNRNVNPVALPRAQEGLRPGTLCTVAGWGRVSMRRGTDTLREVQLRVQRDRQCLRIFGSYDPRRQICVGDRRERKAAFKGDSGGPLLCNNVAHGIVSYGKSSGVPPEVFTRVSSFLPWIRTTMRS

[7] = biological target: Trypsin, from human pancreas (Homo sapiens, UniProt P07477); assay: Enzymatic assay, trypsin; settings: at 100 μM
HELA cells (Acc57) = assay: Cytotoxicity assay (MTT reduction), HELA cells; type: cell-based; settings: Hela cells
How it was run: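 HeLa cells were grown for 24 h, then exposed to peptides at 12.5, 25 and 50 μM in triplicate for 48 h at 37 °C. MTT reduction was read at 595 nm and growth % calculated relative to time-zero wells. LC50 interpolated by linear trend at −50% growth, GI50 at 50%.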

[8] = biological target: T2, Elastase from human neutrophils (Homo sapiens, UniProt P08246); assay: Enzymatic assay, elastase; settings: Elastase IC50
T2 sequence (P08246 30-267): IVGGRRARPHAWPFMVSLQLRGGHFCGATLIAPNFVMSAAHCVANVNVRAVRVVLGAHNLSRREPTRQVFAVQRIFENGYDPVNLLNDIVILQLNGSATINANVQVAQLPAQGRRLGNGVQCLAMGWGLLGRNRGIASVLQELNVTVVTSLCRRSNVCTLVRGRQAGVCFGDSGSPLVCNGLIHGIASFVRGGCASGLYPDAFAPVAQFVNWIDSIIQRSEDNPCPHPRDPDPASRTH

Chymase, from human skin = biological target: T3, Chymase, from human skin (Homo sapiens, UniProt P23946); assay: Enzymatic assay, chymase
T3 sequence (P23946 22-247): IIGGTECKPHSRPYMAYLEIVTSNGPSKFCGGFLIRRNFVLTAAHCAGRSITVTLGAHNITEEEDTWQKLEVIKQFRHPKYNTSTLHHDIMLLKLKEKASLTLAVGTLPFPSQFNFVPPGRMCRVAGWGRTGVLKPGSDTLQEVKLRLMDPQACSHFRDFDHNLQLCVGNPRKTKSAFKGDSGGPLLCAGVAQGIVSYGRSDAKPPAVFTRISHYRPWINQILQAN

Coagulation Factor Xa, from uman plasma, sequence (P00742 235-488 limits assumed): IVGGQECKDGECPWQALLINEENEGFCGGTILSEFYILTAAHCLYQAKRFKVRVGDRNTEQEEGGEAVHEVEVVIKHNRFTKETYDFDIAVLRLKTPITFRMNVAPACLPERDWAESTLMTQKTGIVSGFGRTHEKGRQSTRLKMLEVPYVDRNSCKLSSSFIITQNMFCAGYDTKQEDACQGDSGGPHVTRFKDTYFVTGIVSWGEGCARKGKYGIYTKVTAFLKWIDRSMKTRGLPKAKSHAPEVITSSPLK
Coagulation Factor Xa, from uman plasma, sequence (P00742 41-179 limits assumed): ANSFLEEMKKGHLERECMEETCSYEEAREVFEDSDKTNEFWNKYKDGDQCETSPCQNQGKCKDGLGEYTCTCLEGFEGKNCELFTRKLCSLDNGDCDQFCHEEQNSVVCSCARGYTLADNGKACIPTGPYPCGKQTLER
Chymotrypsin, from human pancreas, sequence (P17538 19-263): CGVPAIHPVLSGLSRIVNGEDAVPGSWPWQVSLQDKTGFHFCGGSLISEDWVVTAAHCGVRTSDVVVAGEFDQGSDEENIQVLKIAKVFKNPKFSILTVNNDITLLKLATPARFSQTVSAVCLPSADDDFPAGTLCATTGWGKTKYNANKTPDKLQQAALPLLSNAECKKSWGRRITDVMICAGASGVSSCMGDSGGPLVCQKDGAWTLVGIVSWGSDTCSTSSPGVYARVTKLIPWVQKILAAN

With `CCCCCCCC[C@@H]1NC(=O)[C@@H]2CCCN2C(=O)[C@H]2CCCN2C(=O)[C@H](Cc2ccc(O)cc2)NC(=O)[C@@H]2CSSC[C@H](NC1=O)C(=O)N[C@@H]([C@@H](C)O)C(=O)N[C@@H](C)C(=O)N[C@@H](CO)C(=O)N[C@@H]([C@@H](C)CC)C(=O)N1CCC[C@H]1C(=O)N1CCC[C@H]1C(=O)N[C@@H](CCC(N)=O)C(=O)N2` [Ex. 102] (HELM PEPTIDE1{[CCCCCCCC[C@H](N[*:1])C(=O)[*:2]].C.T.A.S.I.P.P.Q.C.Y.[dP].P}$PEPTIDE1,PEPTIDE1,2:R3-10:R3|PEPTIDE1,PEPTIDE1,1:R1-13:R2$$$V2.0) the “Urokinase at 100 μM %” value [1] was 0.5%, the “FXa at 100 μM %” value [2] was 0% and the “Thrombin at 100 μM %” value [3] was 1.7%. The IC50 [4] was 4.98 µM, the “Tryptase at 100 μM %” value [5] was 0% and the IC50 [6] was greater than 100 µM. For the same compound, the “Trypsin at 100 μM %” value [7] was 0%, the Cytotoxicity LC50/GI50 Hela cells (HELA cells (Acc57)) was 55 µM and the IC50 [8] was 0.013 µM. The “Chymase at 100 μM %” value (Chymase, from human skin) was 0%.
For `CCCC[C@@H]1NC(=O)[C@@H]2CCCN2C(=O)[C@H]2CCCN2C(=O)[C@H](c2ccccc2)NC(=O)[C@@H]2CSSC[C@H](NC1=O)C(=O)N[C@@H]([C@@H](C)O)C(=O)N[C@@H](C)C(=O)N[C@@H](CO)C(=O)N[C@@H]([C@@H](C)CC)C(=O)N1CCC[C@H]1C(=O)N1CCC[C@H]1C(=O)N[C@@H](CCC(N)=O)C(=O)N2` [Ex. 98] (HELM PEPTIDE1{[Nle].C.T.A.S.I.P.P.Q.C.[Phg].[dP].P}$PEPTIDE1,PEPTIDE1,2:R3-10:R3|PEPTIDE1,PEPTIDE1,1:R1-13:R2$$$V2.0), the “Urokinase at 100 μM %” value [1] was 0%, the “FXa at 100 μM %” value [2] was 0% and the “Thrombin at 100 μM %” value [3] was 5.2%. The IC50 [4] was 38.8 µM, the “Tryptase at 100 μM %” value [5] was 0% and the IC50 [6] was greater than 100 µM. The “Trypsin at 100 μM %” value [7] was 0%, the Cytotoxicity LC50/GI50 Hela cells (HELA cells (Acc57)) was 78 µM and the IC50 [8] was 0.021 µM. The “Chymase at 100 μM %” value (Chymase, from human skin) was 0%.
With `CC[C@H](C)[C@@H]1NC(=O)[C@H](CO)NC(=O)[C@H](C)NC(=O)[C@H]([C@@H](C)O)NC(=O)[C@@H]2CSSC[C@H](NC(=O)[C@H](CCC(N)=O)NC(=O)[C@@H]3CCCN3C(=O)[C@@H]3CCCN3C1=O)C(=O)N[C@@H](Cc1ccc(O)cc1)C(=O)N1CCC[C@@H]1C(=O)N1CCC[C@H]1C(=O)N[C@@H](CCc1ccccc1)C(=O)N2` [Ex. 103] (HELM PEPTIDE1{[O=C([C@H](CCc1ccccc1)N[*:1])[*:2]].C.T.A.S.I.P.P.Q.C.Y.[dP].P}$PEPTIDE1,PEPTIDE1,2:R3-10:R3|PEPTIDE1,PEPTIDE1,1:R1-13:R2$$$V2.0) the “Urokinase at 100 μM %” value [1] was 9.6%, the “FXa at 100 μM %” value [2] was 3% and the “Thrombin at 100 μM %” value [3] was 10.2%. For the same compound, the IC50 [4] was 4.31 µM, the “Tryptase at 100 μM %” value [5] was 0.6% and the IC50 [6] was greater than 100 µM. For the same compound, the “Trypsin at 100 μM %” value [7] was 6.4%, the Cytotoxicity LC50/GI50 Hela cells (HELA cells (Acc57)) was 47 µM and the IC50 [8] was 0.018 µM. The “Chymase at 100 μM %” value (Chymase, from human skin) was 0%.
For `CCCC[C@@H]1NC(=O)[C@H](Cc2ccccc2)NC(=O)[C@H]2CCCN2C(=O)[C@H](Cc2ccc(O)cc2)NC(=O)[C@@H]2CSSC[C@H](NC1=O)C(=O)N[C@@H]([C@@H](C)O)C(=O)N[C@@H](C)C(=O)N[C@@H](CO)C(=O)N[C@@H]([C@@H](C)CC)C(=O)N1CCC[C@H]1C(=O)N1CCC[C@H]1C(=O)N[C@@H](CCC(N)=O)C(=O)N2` [Ex. 122] (HELM PEPTIDE1{[Nle].C.T.A.S.I.P.P.Q.C.Y.[dP].F}$PEPTIDE1,PEPTIDE1,2:R3-10:R3|PEPTIDE1,PEPTIDE1,1:R1-13:R2$$$V2.0), the “Urokinase at 100 μM %” value [1] was 11.1%, the “FXa at 100 μM %” value [2] was 19.6% and the “Thrombin at 100 μM %” value [3] was 0%. For the same compound, the IC50 [4] was 58 µM, the “Tryptase at 100 μM %” value [5] was 0.2% and the IC50 [6] was 35.1 µM. The “Trypsin at 100 μM %” value [7] was 19%, the Cytotoxicity LC50/GI50 Hela cells (HELA cells (Acc57)) was 29 µM and the IC50 [8] was 0.018 µM. The “Chymase at 100 μM %” value (Chymase, from human skin) was 6.4%.
In the case of `CCCC[C@@H]1NC(=O)[C@@H]2CCCN2C(=O)[C@H]2CCCN2C(=O)[C@H](Cc2ccc(O)cc2)NC(=O)[C@@H]2CSSC[C@H](NC1=O)C(=O)N[C@@H]([C@@H](C)O)C(=O)N[C@@H](C)C(=O)N[C@@H](CO)C(=O)N[C@@H](C1CCCCC1)C(=O)N1CCC[C@H]1C(=O)N1CCC[C@H]1C(=O)N[C@@H](CCC(N)=O)C(=O)N2` [Ex. 84] (HELM PEPTIDE1{[Nle].C.T.A.S.[O=C([C@@H](N[*:1])C1CCCCC1)[*:2]].P.P.Q.C.Y.[dP].P}$PEPTIDE1,PEPTIDE1,2:R3-10:R3|PEPTIDE1,PEPTIDE1,1:R1-13:R2$$$V2.0), the “Urokinase at 100 μM %” value [1] is reported as 10.4%, the “FXa at 100 μM %” value [2] is reported as 13.3% and the “Thrombin at 100 μM %” value [3] is reported as 20.6%. For the same compound, the IC50 [4] was 17.1 µM, the “Tryptase at 100 μM %” value [5] was 4.2% and the IC50 [6] was 20.2 µM. For the same compound, the “Trypsin at 100 μM %” value [7] was 10.8%, the Cytotoxicity LC50/GI50 Hela cells (HELA cells (Acc57)) was 9 µM and the IC50 [8] was 0.018 µM. For the same compound, the “Chymase at 100 μM %” value (Chymase, from human skin) was 0%.
For `CCCC[C@@H]1NC(=O)[C@@H]2CCCN2C(=O)[C@H]2CCCN2C(=O)[C@H](CC2CCCCC2)NC(=O)[C@@H]2CSSC[C@H](NC1=O)C(=O)N[C@@H]([C@@H](C)O)C(=O)N[C@@H](C)C(=O)N[C@@H](CO)C(=O)N[C@@H]([C@@H](C)CC)C(=O)N1CCC[C@H]1C(=O)N1CCC[C@H]1C(=O)N[C@@H](CCC(N)=O)C(=O)N2` [Ex. 97] (HELM PEPTIDE1{[Nle].C.T.A.S.I.P.P.Q.C.[Cha].[dP].P}$PEPTIDE1,PEPTIDE1,2:R3-10:R3|PEPTIDE1,PEPTIDE1,1:R1-13:R2$$$V2.0), the “Urokinase at 100 μM %” value [1] was 11.9%, the “FXa at 100 μM %” value [2] was 4.8% and the “Thrombin at 100 μM %” value [3] was 11.6%. For the same compound, the IC50 [4] was 77.4 µM, the “Tryptase at 100 μM %” value [5] was 0% and the IC50 [6] was greater than 100 µM. The “Trypsin at 100 μM %” value [7] was 9.5%, the Cytotoxicity LC50/GI50 Hela cells (HELA cells (Acc57)) was 100 µM and the IC50 [8] was 0.024 µM. For the same compound, the “Chymase at 100 μM %” value (Chymase, from human skin) was 0%.
`CCCC[C@@H]1NC(=O)[C@@H]2CCCN2C(=O)[C@H]2CCCN2C(=O)[C@H](Cc2ccccc2)NC(=O)[C@@H]2CSSC[C@H](NC1=O)C(=O)N[C@@H]([C@@H](C)O)C(=O)N[C@@H](C)C(=O)N[C@@H](CO)C(=O)N[C@@H]([C@@H](C)CC)C(=O)N1CCC[C@H]1C(=O)N1CCC[C@H]1C(=O)N[C@@H](CCC(N)=O)C(=O)N2` [Ex. 90] (HELM PEPTIDE1{[Nle].C.T.A.S.I.P.P.Q.C.F.[dP].P}$PEPTIDE1,PEPTIDE1,2:R3-10:R3|PEPTIDE1,PEPTIDE1,1:R1-13:R2$$$V2.0) was tested, and the “Urokinase at 100 μM %” value [1] was 3.5%, the “FXa at 100 μM %” value [2] was 5.5% and the “Thrombin at 100 μM %” value [3] was 0%. The IC50 [4] was 33.1 µM, the “Tryptase at 100 μM %” value [5] was 5% and the IC50 [6] was 67 µM. For the same compound, the “Trypsin at 100 μM %” value [7] was 5.2%, the Cytotoxicity LC50/GI50 Hela cells (HELA cells (Acc57)) was 96 µM and the IC50 [8] was 0.021 µM. The “Chymase at 100 μM %” value (Chymase, from human skin) was 0%.
